{
  "source": "patent US20240174647A1",
  "about": "(NEURON23, INC., priority 2022, published 2024)",
  "note": "pIC50: −log10 of the molar value.",
  "data": [
    {"target": "wt human LRRK2, catalytic site (Homo sapiens (Human), UniProt Q5S007)", "sequence (Q5S007 1879-2138)": "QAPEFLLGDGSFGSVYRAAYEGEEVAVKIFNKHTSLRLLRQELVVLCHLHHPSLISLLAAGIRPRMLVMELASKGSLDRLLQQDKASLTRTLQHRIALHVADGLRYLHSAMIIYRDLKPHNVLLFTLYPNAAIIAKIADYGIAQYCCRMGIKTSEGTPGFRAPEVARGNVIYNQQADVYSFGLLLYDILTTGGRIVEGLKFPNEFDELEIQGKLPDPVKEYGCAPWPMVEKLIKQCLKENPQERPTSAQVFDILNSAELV", "experiment": "TR-FRET LanthaScreen Tb Kinase Activity Assay (LRRK2 kinase inhibition)", "type": "biochemical", "conditions": "2 nM wt human LRRK2, 400 nM fluorescein-ERM (LRRKtide) peptide, 38 μM ATP, 120 minutes at room temperature", "description": "The compounds in Table 1 were tested for their inhibitory effect on LRRK2 kinase according to the following procedures.\nThe protocol for basic TR-FRET LanthaScreen Tb Kinase Activity Assay inhibitor studies were as follows. LanthaScreen Kinase Activity Assays (ThermoFisher/USA) to evaluate inhibitors were performed by addition of 100 nL of test compound in corresponding DMSO dilutions/5 μL of kinase/fluorescein-ERM(LRRKtide) peptide mixture, 5 μL of ATP into 384 well small volume plates. After incubation for 120 minutes at room temperature, the detection reagents containing Tb-anti-pLRRKtide antibody were added to monitor phosphrylation level of peptide. Then, after 60 min minutes incubation at room temperature plates were read in Envision. Data analysis of emission ratios was according to LanthaScreen Tb Kinase Activity Assay protocol.\nKinase and assay components were adjusted to final concentrations according to the kit protocol. For LRRK2: 2 nM wt human LRRK2, catalytic site, catalytic site (ThermoFisher/USA), 400 nM peptide, 38 μM ATP in 1× Kinase Buffer A.\nBasic protocol for TR-FRET LanthaScreen Tb Kinase Activity Assay inhibitor studies involved two steps: • Enzymatic step: Addition of 100 nL of test compound in corresponding DMSO dilutions, 5 μL of kinase/substrate mixture, 5 μL of ATP into 384 well small volume plates. Incubation for 120 minutes at room temperature. • Detection step: Addition of 10 μL EDTA & antibody, read plate after 60 minutes. Data analysis of emission ratios according to KinEASE assay protocol.\nKinase and assay components were adjusted to final concentrations according to the kit protocol.\nIn the table below, activity is provided as follows: +++=IC50 less than 50 nM; ++=IC50 between 50 nM and 200 nM; +=IC50>=200 nM", "values": [
      {"smiles": "CNc1nc(Nc2cc(F)c3cn[nH]c3c2)ncc1C(F)(F)F", "note": "[Example 6, N2-(4-fluoro-1H-indazol-6-yl)-N4-methyl-5-(trifluoromethyl)pyrimidine-2,4-diamine]", "pIC50": "> 7.30"},
      {"smiles": "CNc1nc(Nc2cc(C#N)cc3c2cnn3C)ncc1C(F)(F)F", "note": "[Example 44, 1-methyl-4-((4-(methylamino)-5-(trifluoromethyl)pyrimidin-2-yl)amino)-1H-indazole-6-carbonitrile]", "pIC50": "> 7.30"},
      {"smiles": "CNc1nc(Nc2ccc3[nH]ncc3c2)ncc1C(F)(F)F", "note": "[Example 72, N2-(1H-indazol-5-yl)-N4-methyl-5-(trifluoromethyl)pyrimidine-2,4-diamine]", "pIC50": "> 7.30"},
      {"smiles": "FC(F)(F)c1cnc(Nc2cccc3c2cnn3CC2COC2)nc1NC1CC1", "note": "[Example 197, N^4-cyclopropyl-N^2-(1-(oxetan-3-ylmethyl)-1H-indazol-4-yl)-5-(trifluoromethyl) pyrimidine-2,4-diamine]", "pIC50": "6.70 to 7.30"},
      {"smiles": "CCNc1nc(Nc2cccc3c2cnn3C)ncc1Cl", "note": "[Example 70, 5-chloro-N4-ethyl-N2-(1-methyl-1H-indazol-4-yl)pyrimidine-2,4-diamine]", "pIC50": "> 7.30"},
      {"smiles": "O=S(=O)(C1CC1)n1ncc2c(Nc3ncc(C(F)(F)F)c(C4CC4)n3)cccc21", "note": "[Example 132, N-(4-cyclopropyl-5-(trifluoromethyl)pyrimidin-2-yl)-1-(cyclopropylsulfonyl)-1H-indazol-4-amine]", "pIC50": "6.70 to 7.30"},
      {"smiles": "CCOc1nc(Nc2cccc3c2cnn3CC(F)F)nc2[nH]cc(Cl)c12", "note": "[Example 165, 5-chloro-N-[1-(2,2-difluoroethyl)indazol-4-yl]-4-ethoxy-7H-pyrrolo[2,3-d]pyrimidin-2-amine]", "pIC50": "> 7.30"},
      {"smiles": "COCCn1ncc2c(Nc3ncc(C(F)(F)F)c(NC(C)C)n3)cccc21", "note": "[Example 140, N^4-isopropyl-N^2-[1-(2-methoxyethyl)indazol-4-yl]-5-(trifluoromethyl)pyrimidine-2,4-diamine]", "pIC50": "> 7.30"},
      {"smiles": "CNc1nc(Nc2cc(F)cc3c2cnn3CC#N)ncc1C(F)(F)F", "note": "[Example 91, 2-(6-fluoro-4-((4-(methylamino)-5-(trifluoromethyl)pyrimidin-2-yl)amino)-1H-indazol-1-yl)acetonitrile]", "pIC50": "> 7.30"},
      {"smiles": "CNc1nc(Nc2cc(F)cc3[nH]ncc23)ncc1C(F)(F)F", "note": "[Example 25, N2-(6-fluoro-1H-indazol-4-yl)-N4-methyl-5-(trifluoromethyl)pyrimidine-2,4-diamine]", "pIC50": "> 7.30"},
      {"smiles": "CNc1nc(Nc2ccc(/C=C/C(=O)N3CCOCC3)c3[nH]ncc23)ncc1C(F)(F)F", "note": "[Example 56, (E)-3-(4-((4-(methylamino)-5-(trifluoromethyl)pyrimidin-2-yl)amino)-1H-indazol-7-yl)-1-morpholinoprop-2-en-1-one]", "pIC50": "> 7.30"},
      {"smiles": "CNc1nc(Nc2cccn3cncc23)ncc1C(F)(F)F", "note": "[Example 130, N^2-(imidazo[1,5-a]pyridin-8-yl)-N^4-methyl-5-(trifluoromethyl)pyrimidine-2,4-diamine]", "pIC50": "> 7.30"},
      {"smiles": "CS(=O)(=O)CCn1ncc2c(Nc3nc(NC4CC4)c4c(Cl)c[nH]c4n3)cccc21", "note": "[Example 203, 5-chloro-N^4-cyclopropyl-N^2-(1-(2-(methylsulfonyl)ethyl)-1H-indazol-4-yl)-7H-pyrrolo[2,3-d]pyrimidine-2,4-diamine]", "pIC50": "> 7.30"},
      {"smiles": "CNc1nc(Nc2cc(F)cc3c2cnn3C)ncc1C(F)(F)F", "note": "[Example 42, N2-(6-fluoro-1-methyl-1H-indazol-4-yl)-N4-methyl-5-(trifluoromethyl) pyrimidine-2,4-diamine]", "pIC50": "> 7.30"},
      {"smiles": "CNc1nc(Nc2cccc3c2cnn3CC(C)(C)O)ncc1C(F)(F)F", "note": "[Example 97, 2-methyl-1-(4-((4-(methylamino)-5-(trifluoromethyl)pyrimidin-2-yl)amino)-1H-indazol-1-yl)propan-2-ol]", "pIC50": "> 7.30"},
      {"smiles": "CNc1nc(Nc2c(C)[nH]c3ccccc23)ncc1C(F)(F)F", "note": "[Example 63, N4-methyl-N2-(2-methyl-1H-indol-3-yl)-5-(trifluoromethyl)pyrimidine-2,4-diamine]", "pIC50": "6.70 to 7.30"},
      {"smiles": "CCNc1nc(Nc2cccc3c2cnn3CCS(C)(=O)=O)ncc1C(F)(F)F", "note": "[Example 186, N^4-ethyl-N^2-[1-(2-methylsulfonylethyl)indazol-4-yl]-5-(trifluoromethyl) pyrimidine-2,4-diamine]", "pIC50": "> 7.30"},
      {"smiles": "CNc1nc(Nc2ccc3cnn(CC#N)c3c2)ncc1C(F)(F)F", "note": "[Example 16, 2-(6-((4-(methylamino)-5-(trifluoromethyl)pyrimidin-2-yl)amino)-1H-indazol-1-yl)acetonitrile]", "pIC50": "> 7.30"},
      {"smiles": "CS(=O)(=O)n1ncc2c(Nc3ncc(C(F)(F)F)c(NC4CCC4)n3)cccc21", "note": "[Example 150, N^4-cyclobutyl-N^2-(1-methylsulfonylindazol-4-yl)-5-(trifluoromethyl)pyrimidine-2,4-diamine]", "pIC50": "> 7.30"},
      {"smiles": "CS(=O)(=O)n1ncc2c(Nc3ncc(C(F)(F)F)c(NC4CC4)n3)cccc21", "note": "[Example 102, N4-cyclopropyl-N2-(1-(methylsulfonyl)-1H-indazol-4-yl)-5-(trifluoromethyl)pyrimidine-2,4-diamine]", "pIC50": "> 7.30"},
      {"smiles": "CNc1nc(Nc2cccc3c2CC(=O)N3)ncc1C(F)(F)F", "note": "[Example 127, 4-[[4-(methylamino)-5-(trifluoromethyl)pyrimidin-2-yl]amino]indolin-2-one]", "pIC50": "> 7.30"},
      {"smiles": "OCCNc1nc(Nc2cccc3c2cnn3CC(F)F)ncc1C(F)(F)F", "note": "[Example 141, 2-[[2-[[1-(2,2-difluoroethyl)indazol-4-yl]amino]-5-(trifluoromethyl)pyrimidin-4-yl]amino]ethanol]", "pIC50": "> 7.30"},
      {"smiles": "FC(F)(F)c1cnc(Nc2cccc3c2cnn3CC2CC2)nc1NC1CC1", "note": "[Example 168, N^4-cyclopropyl-N^2-(1-(cyclopropylmethyl)-1H-indazol-4-yl)-5-(trifluoromethyl)pyrimidine-2,4-diamine]", "pIC50": "> 7.30"},
      {"smiles": "CNc1nc(Nc2ccc(OC)c3nn(C)cc23)ncc1C(F)(F)F", "note": "[Example 35, N2-(7-methoxy-2-methyl-2H-indazol-4-yl)-N4-methyl-5-(trifluoromethyl) pyrimidine-2,4-diamine]", "pIC50": "> 7.30"},
      {"smiles": "O=S(=O)(C1CC1)n1ncc2c(Nc3ncc(C(F)(F)F)c(NC4CC4)n3)cccc21", "note": "[Example 78, N4-cyclopropyl-N2-(1-(cyclopropylsulfonyl)-1H-indazol-4-yl)-5-(trifluoromethyl)pyrimidine-2,4-diamine]", "pIC50": "> 7.30"},
      {"smiles": "CS(=O)(=O)n1ncc2c(Nc3ncc(C(F)(F)F)c(N[C@@H]4CCOC4)n3)cccc21", "note": "[Example 148, (R)—N^2-(1-(methylsulfonyl)-1H-indazol-4-yl)-N-(tetrahydrofuran-3-yl)-5-(trifluoromethyl)pyrimidine-2,4-diamine]", "pIC50": "> 7.30"},
      {"smiles": "CNc1nc(Nc2c(C)[nH]c3c(C#N)cccc23)ncc1C(F)(F)F", "note": "[Example 66, 2-methyl-3-((4-(methylamino)-5-(trifluoromethyl)pyrimidin-2-yl)amino)-1H-indole-7-carbonitrile]", "pIC50": "6.70 to 7.30"},
      {"smiles": "CC(C)(O)Cn1ncc2c(Nc3ncc(C(F)(F)F)c(NC4CC4)n3)cccc21", "note": "[Example 146, 1-[4-[[4-(cyclopropylamino)-5-(trifluoromethyl)pyrimidin-2-yl]amino]indazol-1-yl]-2-methyl-propan-2-ol]", "pIC50": "> 7.30"},
      {"smiles": "O=S(=O)(C1CC1)n1ncc2c(Nc3ncc(C(F)(F)F)c(NC4CC4)n3)ccc(F)c21", "note": "[Example 153, N^4-cyclopropyl-N^2-(1-(cyclopropylsulfonyl)-7-fluoro-1H-indazol-4-yl)-5-(trifluoromethyl) pyrimidine-2,4-diamine]", "pIC50": "> 7.30"},
      {"smiles": "CNc1nc(Nc2cn(C)c3ncncc23)ncc1C(F)(F)F", "note": "[Example 125, 4-methyl-N2(7-methylpyrrolo[2,3-d]pyrimidin-5-yl)-5-(trifluoromethyl) pyrimidine-2,4-diamine]", "pIC50": "> 7.30"},
      {"smiles": "O=S(=O)(C1CC1)n1ncc2c(Nc3ncc(C(F)(F)F)c(NCCF)n3)cccc21", "note": "[Example 137, N^2-(1-(cyclopropylsulfonyl)-1H-indazol-4-yl)-N^4-(2-fluoroethyl)-5-(trifluoromethyl) pyrimidine-2,4-diamine]", "pIC50": "> 7.30"},
      {"smiles": "CNc1nc(Nc2ccc3cn[nH]c3c2C)ncc1C(F)(F)F", "note": "[Example 5, N4-methyl-N2-(7-methyl-1H-indazol-6-yl)-5-(trifluoromethyl)pyrimidine-2,4-diamine]", "pIC50": "> 7.30"},
      {"smiles": "CNc1nc(Nc2c(C)ccc3[nH]ncc23)ncc1C(F)(F)F", "note": "[Example 23, N4-methyl-N2-(5-methyl-1H-indazol-4-yl)-5-(trifluoromethyl)pyrimidine-2,4-diamine]", "pIC50": "6.70 to 7.30"},
      {"smiles": "C[C@@]1(n2ncc3c(Nc4ncc(C(F)(F)F)c(NC5CC5)n4)cccc32)CCOC1=O", "note": "[Example 166, (R)-3-(4-((4-(cyclopropylamino)-5-(trifluoromethyl)pyrimidin-2-yl)amino)-1H-indazol-1-yl)-3-methyldihydrofuran-2(3H)-one]", "pIC50": "> 7.30"}
    ]}
  ]
}
